# According to US20070148211A1, “PROCESSES FOR MAKING PARTICLE-BASED PHARMACEUTICAL FORMULATIONS FOR ORAL ADMINISTRATION” (Acusphere, Inc., priority 2005, published 2007):
# Assay: Visual evaluation of dispersibility of celecoxib powders after reconstitution in 0.01N HCl
# Assay type: physicochemical
# Protocol: The unprocessed celecoxib, the blended celecoxib, and the jet milled blended celecoxib were analyzed using visual inspection and by light microscopy (performed on a hemacytometer slide) following reconstitution in 0.01N HCl. FIGS. 5A, 5B, and 5C show the particles of the bulk celecoxib, the blended powder, and the jet-milled blended powder, respectively. The quality of the suspensions are described in Table 2.
smiles,measurement,value
"Cc1ccc(-c2cc(C(F)(F)F)nn2-c2ccc(S(N)(=O)=O)cc2)cc1 [Celecoxib/no blending or jet milling, celecoxib]",Visual Evaluation of Suspension,Poor suspension containing many
